# In US20020156129A1, “Method of treating pruritus and a pharmaceutical composition for the method” (priority 2001, published 2002):
# Experiments:
# NC mouse = details: administration of NOS inhibitor; cited from earlier work
# [1] = tested on: ICR mice, cutaneous barrier function disrupted by acetone/diethylether and water; test: Scratching action of mice with disrupted cutaneous barrier function, subcutaneous administration (Example 1); type: in vivo, mouse; details: subcutaneous 10 mg/kg at barrier-disrupted site, 15 min before recording; scratching counted for 2 hours; mean ± standard error, 8 mice
# Experimental: A number of scratching action of 8 mice per 2 hours is shown by the average percentage±standard error based on the average of the control group (100%). “S” represents the control group which received saline, “L” represents L-NAME administrated group and “D” represents D-NAME administrated group.
# The evaluation of the therapeutic effects of the pharmaceutical composition of the present invention may be conducted by using the small test animals produced by the method developed by the inventors, such as mice of which the cutaneous barrier function have been disrupted. Such animals may be produced according to the following procedure: An noninflammation dermal lesion caused by the disruption of cutaneous barrier function may be induced by degreasing the small test animals by applying an organic solvent to the glabrous skin of the animals and then treating with water. […] For example, the hydration of the stratum corneum can be determined by a technique of conductimetry, determination of electrostatic capacity or FT-IR method. Transepidermal water loss can be non-invasively determined with an electric measuring instrument or the like so as not to influence the scratching action. […]
SMILES,effect on scratching action (NC mouse),number of the scratching action relative to saline control group (100%) [1]
"COC(=O)[C@@H](N)CCCNC(=N)N[N+](=O)[O-] [L-NAME, Nw-nitro-L-arginine methyl ester]",scratching action can be suppressed,27.9±6.4%
"COC(=O)[C@H](N)CCCN=C(N)N[N+](=O)[O-] [D-NAME, Nw-nitro-D-arginine methyl ester]",,90.9±15.2%
